From US20120196918A1, “PREVENTING ISLET INFLAMMATION AND DYSFUNCTION AND MAINTAINING PROPER GLUCOSE LEVELS BY CONTROLLING eIF5A AND ITS HYPUSINATION” (priority 2009, published 2012)

Assays:
[1] = tested on: STZ-treated C57BL/6J mice; assay: Multiple low-dose streptozotocin (STZ) diabetes model in C57BL/6J mice; format: in vivo, mouse
Protocol: (§1) To test the role of eIF5A in cytokine-mediated islet dysfunction, efforts were made to identify a mouse model of islet inflammation. The multiple low dose streptozotocin (STZ) model, in which mice are subjected to five daily intraperitoneal doses (at 55 mg/kg body weight) of STZ, is considered to provoke local islet inflammation and cytokine release, in part through the recruitment of CD11c+ dendritic cells that release pro-inflammatory cytokines in the area of STZ-induced cellular destruction (27 and 28).
C57BL/6J mice were injected intraperitoneally with either stabilized siRNA against eIF5A (si-eIF5A) or control siRNA (si-Control) daily for three days, then subjected to the multiple low-dose STZ protocol (see schematic in FIG. 1a). […] The effect of administering si-eIF5A on islet viability following STZ treatment was determined by performing immunohistochemical analysis of the pancreata of mice. […] To quantify the differences in islet mass between STZ-treated and untreated animals, morphometry of insulin-stained pancreatic sections was performed.
Based on the observed data, if hypusination of eIF5A by DHS is required for cytokine responsiveness in islets, then inhibition of DHS in vivo should protect against low dose STZ diabetes. To test this, C57BL/6J mice were treated with GC7 or vehicle and then subjected to low dose STZ injections. GC7 was delivered in one of two different ways: either by daily bolus intraperitoneal injections (4 mg/kg/day) or by continuous subcutaneous delivery (40 μg/kg/h) using implanted osmotic pumps. A protocol similar to that shown in FIG. 1A was employed in these studies, with GC7 injections or pump implants starting 3 days prior to STZ injections.
Small interfering RNA (siRNA) studies: Stabilized siRNAs for intraperitoneal injections were custom synthesized by Dharmacon using the siSTABLE® modification. Groups of 10 week-old C57BL/6J male mice (from Jackson Labs) received daily intraperitoneal injections of 1.6 mg/kg siRNA prepared in 0.9% saline or vehicle alone (0.9% saline) for 3 days. For in vitro studies, islets from each group of injected mice were harvested on the fourth day and pooled prior to analysis. Injections with each siRNA were performed on at least 3 different occasions. siRNA sequences were as follows: siControl, 5′-[…]-3′; si-eIF5A, 5′-[…]-3′. For siRNA studies in the rat β cell-derived line INS-1 (832/13), cells were transfected with a SMART Pool® siRNA against rat eIF5A1 (Dharmacon, #L-083855-01) or non-targeting control siRNA #1 (Dharmacon) using DharmaFECT® transfection reagent (Dharmacon).
Immunostaining and morphometric assessment of β cell mass: Immunostaining of pancreatic sections proceeded as described previously (72). For assessment of islet cell death in pancreatic sections, the technique of terminal deoxynucleotidyl transferase dUTP nick end labeling (TUNEL) was performed using biotinylated 16-dUTP (Roche) and Texas Red Neutravidin (Invitrogen). Digital images of each islet at 40× magnification were acquired using an Axio-Observer D1 microscope (Zeiss) inverted fluorescent microscope equipped with a high-resolution color camera. TUNEL-positive/insulin-positive nuclei were counted manually by an observer blinded to sample identity, and data were re-coded as the average number of TUNEL-positive nuclei per islet. β cell mass was calculated as described previously (73), but with some modifications. Briefly, pancreata from 3 mice per treatment group were rapidly dissected and weighed, fixed in 4% paraformaldehyde, paraffin-embedded, and longitudinally sectioned. Three sections/pancreas (approx. 75 μm apart) were subsequently immunostained for insulin and counterstained with hematoxylin as described (74), and digital images of each section at 10× magnification were acquired on an Axio-Observer Z1 microscope (Zeiss) fitted with an AxioCam high resolution color camera. […]

iNOS [2] = conditions: cited from earlier work
eIF5A = eIF5A nuclear-to-cytoplasmic translocation in INS-1 cells (immunofluorescence); format: cell-based, rat; conditions: pretreatment, then cytokines 4 h
Protocol: Given the striking retention of Nos2 transcripts in the absence of eIF5A-Hyp, it was of interest to determine whether the intracellular distribution of eIF5A accounts for its effect on Nos2 nucleo-cytoplasmic shuttling. Immunofluorescence of eIF5A in fixed INS-1 cells, were thus performed. […] Upon treatment of cells with cytokines, there was a shift in the eIF5A distribution pattern from the nucleus to the cytoplasm.
Cytokine and inhibitor incubation studies: For cytokine incubation assays, a 1000× cocktail of cytokines containing 5 μg/ml IL1β, 10 μg/ml TNFα, and 100 μg/ml IFNγ (all prepared in 0.1% BSA in Tris-buffered saline) was applied at 1× final concentration to groups of 50 islets or 1×10^6 INS-1 (832/13) cells for a total of 4 h at 37° C. For GC7 incubation studies, GC7 was prepared at a stock concentration of 125 mM in 10 mM acetic acid and applied to cultures of 50 islets or 1×10^6 INS-1 cells to obtain the final concentrations indicted in the figures. […]
Immunofluorescence: Immunofluorescence of INS-1 cells proceeded essentially as described previously (71), using primary antibodies to eIF5A1 and secondary anti-mouse Alexa-488-conjugated antibody (Invitrogen), or by direct visualization of GFP fusion proteins at 488 nm. […] Quantitation of cytoplasic-to-nuclear ratios of eIF5A staining was performed using Axio-Vision Software, v. […]

Nos2 mRNA = assay: Nuclear export of Nos2 mRNA, subcellular fractionation of cytokine-treated INS-1 cells; format: cell-based, rat
Protocol: Subcellular fractionation studies: Nuclear and cytoplasmic fractions of 1×10^6 cytokine-treated INS-1 cells exposed to vehicle, leptomycin B (20 ng/ml), or GC7 (100 μM) were prepared using the method of Dignam, et al. (76). Total RNA was isolated from nuclear and cytoplasmic fractions using the RNeasy® RNA isolation kit (Qiagen).
Quantitative RT-PCR: Five micrograms of total RNA from islets or INS-1 cells were reverse-transcribed as detailed previously (77). cDNA was subjected to quantitative PCR using SYBR Green-based technology and published primers for mouse Ins1/2 pre-mRNA (78) and QuantiTech® primers (Qiagen) for all other mouse genes. The Assay on Demand® kit (Applied Biosystems) was used to amplify rat genes in INS-1 cells and human genes in human islets. Thermal cycling was performed according to manufacturer's instructions, and the identity of each PCR product was verified by automated sequencing. All samples were corrected for total input RNA as quantitated by an Experion® (Bio-Rad) bioanalyzer. All data represent the average of triplicate determinations from at least 3 independent experiments.

iNOS [3] = assay: Cytokine-induced iNOS protein in INS-1 cells (immunoblot); format: cell-based, rat; conditions: increasing inhibitor concentrations overnight, cytokines 4 h
Source text: eIF5A1 and eIF5A2 are the only proteins known to contain the unique amino acid hypusine at position 50. Hypusine is formed as a posttranslational modification of residue Lys50 in a reaction requiring spermidine and catalyzed by the sequential actions of the enzymes deoxyhypusine synthase (DHS) and deoxyhypusine hydroxylase (DOHH) (Chen, K Y, and Liu, A Y. Biochemistry and function of hypusine formation on eukaryotic initiation factor 5A. Biol Signals. 1997; 6(3):105-109). […] To further investigate the mechanism of eIF5A-regulated translation of Nos2, studies were performed following overnight incubation of cells with mimosine (an inhibitor of DOHH) and GC7 (an inhibitor of DHS). […] Similar data using GC7 were obtained in primary mouse islets (data not shown) and in human islets (FIGS. 5F and 5G).
Because GC7 is known to be inactivated by the action amine oxidases, which are abundant in serum, typical studies with GC7 in the literature have used aminoguanidine to inhibit amine oxidases (16). […] To rule out possible adverse effects of GC7 on cell viability, quantitative 2 color fluorescence analysis of live (calcein-AM-positive) and dead (ethidium homodimer-1-positive) cells were performed using fluorescence cytometry.
Cytokine and inhibitor incubation studies: For cytokine incubation assays, a 1000× cocktail of cytokines containing 5 μg/ml IL1β, 10 μg/ml TNFα, and 100 μg/ml IFNγ (all prepared in 0.1% BSA in Tris-buffered saline) was applied at 1× final concentration to groups of 50 islets or 1×10^6 INS-1 (832/13) cells for a total of 4 h at 37° C. For GC7 incubation studies, GC7 was prepared at a stock concentration of 125 mM in 10 mM acetic acid and applied to cultures of 50 islets or 1×10^6 INS-1 cells to obtain the final concentrations indicted in the figures. Where needed, GC7 was protected from amine oxidases in serum by addition of 1 mM aminoguanidine (Sigma). Cells were incubated with GC7 overnight (˜16 h) at 37° C. prior to analysis. Cells were exposed to Leptomycin B (Cayman Chemicals) for 3 hours; leptomycin B was prepared at a 1000× stock concentration of 20 μg/ml in ethanol.
Immunoblot and nitrite and iNOS assays: Whole cell extracts were resolved by electrophoresis on a 4-20% SDS-polyacrylamide gel, followed by immunoblot using anti-eIF5A1, anti-eIF5A2, anti-iNOS, anti-GFP, or anti-actin primary antibodies and fluorophore-labeled secondary antibodies. Immunoblots were visualized using the Li-Cor® Odyssey® system (Li-Cor Biosciences) and quantitated by scanning fluorometry using Odyssey Imaging v. […] Nitrite was quantitated by measuring nitric oxide-derived nitrite from INS-1 cell culture medium using the Griess reagent (Promega) according to the manufacturer's recommendations. iNOS activity was measured using a commercially available kit (Cayman).

[4] = tested on: STZ-treated NOD/Scid-(IL-2Rγ-null) mice; assay: Multiple low-dose STZ model in immune-deficient NOD/Scid-(IL-2Rγ-null) mice; format: in vivo, mouse; conditions: multiple low-dose STZ (data not shown for si-eIF5A)
Protocol: as §1
As noted, low-dose STZ-induced islet dysfunction involves at least two mechanisms: an inflammatory mechanism that is dependent upon cytokine release from immune cells and a direct toxic mechanism on the islet itself. […] Next, islets from 3 C57BL/6J mice per group 24 h after the initial STZ treatment were isolated and pooled and their iNOS content determined by immunoblot. […]
Studies in vivo: Daily STZ injections to groups of 10 week-old C57BL/6J and NOD/Scid-(IL-2Rγ-null) mice proceeded as described previously (30) at a dose of 55 mg STZ per kg mouse weight for 5 days. […] Serum was analyzed using a Luminex system (Millipore) and a mouse cytokine/chemokines Panel 1 mutliplex kit (Millipore).

5′-AAAGUCGACCUUCAGUAAGGA-3′ (stabilizing modifications, further chemistry not given here) [si-Control, control siRNA, stabilized]
average fasting blood glucose ([1]; siRNA 1.6 mg/kg i.p. daily for 3 days, then multiple low-dose STZ, day 7): 159 mg/dL
reduction of β cell mass compared to non-STZ-treated controls ([1]; siRNA i.p., multiple low-dose STZ, morphometry of insulin-stained sections): 2.8 fold

N=C(N)NN [aminoguanidine]
inhibition of iNOS catalytic activity (literature) (iNOS [2]): effective inhibitor of iNOS catalytic activity

CCC(=C/[C@H](C)C/C=C/C(C)=C/[C@@H](C)C(=O)[C@@H](C)[C@H](O)[C@@H](C)C/C(C)=C/C(=O)O)/C=C/[C@@H]1OC(=O)C=C[C@@H]1C [leptomycin B]
cytokine-induced translocation of eIF5A (eIF5A): failed to induce the nuclear to cytoplasmic translocation of eIF5A
Nos2 export blocked (Nos2 mRNA; cytokine-treated INS-1 cells): about 50%
distribution of mRNAs between nuclear and cytoplasmic fractions (Nos2 mRNA; cytokine-treated, GC7 100 μM overnight or leptomycin B 20 ng/ml 3 h): relative retention of Nos2, Actb, and Nfkb1 (but not Gapdh) in the nuclear fraction

NC(Cn1ccc(=O)c(O)c1)C(=O)O (stereo not shown) [mimosine]
iNOS protein after cytokines (iNOS [3]): dose-dependent attenuation

IL-1Ra: interleukin-1 receptor antagonist, the IL-1Ra anakinra
protection against glucose intolerance [4]: did not protect against glucose intolerance
glucose intolerance in IPGTT with IL-1Ra ([1]; concurrent IL-1Ra treatment, multiple low-dose STZ): attenuated glucose intolerance only in immune-competent mice
serum IL-6 levels ([1]; concurrent treatment with STZ): dramatic drop in serum IL-6 levels
